Assay [1] deals with T1, B1R receptor of the rat (rB1R) (Rattus norvegicus, UniProt P97583).
T1 construct: expressed in transfected cells; host or cells: CHO K1 cells
T1 sequence (P97583 1-337): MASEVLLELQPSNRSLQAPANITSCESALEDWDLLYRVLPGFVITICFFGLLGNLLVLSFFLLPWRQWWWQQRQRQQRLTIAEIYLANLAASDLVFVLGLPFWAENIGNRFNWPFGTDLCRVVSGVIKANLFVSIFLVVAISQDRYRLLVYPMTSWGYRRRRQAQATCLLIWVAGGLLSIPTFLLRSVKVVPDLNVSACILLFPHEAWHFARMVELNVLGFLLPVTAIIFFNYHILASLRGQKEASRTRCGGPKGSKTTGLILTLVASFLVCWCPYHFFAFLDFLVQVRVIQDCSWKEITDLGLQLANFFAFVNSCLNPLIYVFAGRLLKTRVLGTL
Briefly: Functional investigation on the bradykinin 1 receptor (B1R), FLIPR Ca2+ assay, rB1R cells. The class given is cell-based. Particulars: test substance 10 μM; CHO K1 cells transfected with rat B1R gene; Fluo-4 Ca2+ signal; agonist Des-Arg9-bradykinin at EC80; % of maximum achievable inhibition; read-out: B1R antagonism, rat [10 μM] % inhibition. The essentials:
(§1)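 CHO K1 cells stably expressing human or rat B1R, Fluo-4 loaded, read by FLIPR (λex 488, λem 540 nm). Test compound (10 μM) first gave % activation against Lys-Des-[MUT]-bradykinin ≥50 nM (hB1R) or Des-[MUT]-bradykinin 10 μM (rB1R). After 10–20 min, agonist at EC80 was added; % inhibition or IC50 from concentration series, n=2–3, N≥2.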

The target of assay [2] is T2, human B1R receptor (hB1R) (Homo sapiens, UniProt P46663).
T2 construct: expressed in transfected cells; host or cells: CHO K1 cells
T2 sequence (P46663 1-353): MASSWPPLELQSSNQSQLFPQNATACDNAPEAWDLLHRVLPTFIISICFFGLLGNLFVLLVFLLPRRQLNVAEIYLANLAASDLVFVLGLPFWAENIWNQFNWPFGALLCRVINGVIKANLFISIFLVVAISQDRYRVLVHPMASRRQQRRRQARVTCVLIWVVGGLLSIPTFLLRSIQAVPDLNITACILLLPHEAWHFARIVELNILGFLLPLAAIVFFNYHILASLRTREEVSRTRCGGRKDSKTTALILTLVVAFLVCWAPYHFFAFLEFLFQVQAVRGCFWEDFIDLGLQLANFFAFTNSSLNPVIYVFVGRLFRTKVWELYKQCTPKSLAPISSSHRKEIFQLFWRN
Briefly: Functional investigation on the bradykinin 1 receptor (B1R), FLIPR Ca2+ assay, hB1R cells. In kind it is cell-based. Particulars: test substance 10 μM; CHO K1 cells transfected with human B1R gene; Fluo-4 Ca2+ signal; agonist Lys-Des-Arg9-bradykinin at EC80; % of maximum achievable inhibition; read-out: B1R antagonism, human [10 μM] % inhibition. The essentials:
as §1

For orientation: inhibition means the drop in the measured response relative to a control, in per cent.

The structures appear in SMILES notation. Counter-ions that a name gives are not always drawn.

`COc1cc(C)c(S(=O)(=O)N2CCC[C@H]2CCCS(=O)(=O)N2CCC3(CCN(c4ccncc4)CC3)CC2)c(C)c1` [Example 64, 3-(3-((S)-1-(4-Methoxy-2,6-dimethylphenylsulfonyl)pyrrolidin-2-yl)propylsulfonyl)-9-(pyridin-4-yl)-3,9-diazaspiro[5.5]undecane]: the inhibition at 10 µM in assay [1] and in assay [2] was 99% each time.

Consider `Cc1cccc(Cl)c1S(=O)(=O)N1CCC[C@H]1CCCS(=O)(=O)N1CCC2(CCN(c3ccncc3)CC2)CC1` [Example 65, 3-(3-((S)-1-(2-Chloro-6-methylphenylsulfonyl)pyrrolidin-2-yl)propylsulfonyl)-9-(pyridin-4-yl)-3,9-diazaspiro[5.5]undecane], for which the inhibition at 10 µM worked out at 97% in assay [1] and 99% in assay [2].

Take `CC1(C)CCc2cc(S(=O)(=O)N3CCC[C@H]3CCCS(=O)(=O)N3CCC(Oc4ccncc4)CC3)ccc2O1` [Example 69, (S)-4-(1-(3-(1-(2,2-Dimethylchroman-6-ylsulfonyl)pyrrolidin-2-yl)propylsulfonyl)piperidin-4-yloxy)pyridine]: the results for the inhibition at 10 µM in assay [1] and in assay [2] were 12% and 33%, respectively.

For `CN1CCC(N2CCN(S(=O)(=O)CCC[C@@H]3CCCN3S(=O)(=O)CC(c3ccccc3)c3ccccc3)CC2)CC1` [Example 33, (S)-1-(3-(1-(2,2-Diphenylethylsulfonyl)pyrrolidin-2-yl)propylsulfonyl)-4-(1-methylpiperidin-4-yl)piperazine], the values for the inhibition at 10 µM in assay [1] and in assay [2] were 36% and 98%, respectively.

On to `COc1cc(C)c(S(=O)(=O)N2CCCC2CCCCS(=O)(=O)N2CCC(CCN3CCCC3)CC2)c(C)c1C` (stereo not drawn) [Example 8, 1-(4-(1-(4-Methoxy-2,3,6-trimethylphenylsulfonyl)pyrrolidin-2-yl)butylsulfonyl)-4-(2-(pyrrolidin-1-yl)ethyl)piperidine], for which the inhibition at 10 µM came to 46% in assay [1] and 59% in assay [2].

Regarding `O=S(=O)(CCC[C@@H]1CCCN1S(=O)(=O)c1cccc2c(Cl)cccc12)N1CCC2(CCN(c3ccncc3)CC2)CC1` [Example 76, 3-(3-((S)-1-(5-Chloronaphthalen-1-ylsulfonyl)pyrrolidin-2-yl)propylsulfonyl)-9-(pyridin-4-yl)-3,9-diazaspiro[5.5]undecane], the inhibition at 10 µM in assay [1] and in assay [2] was 95% in each case.

Regarding `O=S(=O)(CCC[C@@H]1CCCN1S(=O)(=O)c1cccc(Cl)c1Cl)N1[C@@H]2CC[C@H]1C[C@H](Oc1ccncc1)C2` [Example 60, (1R,3R,5S)-8-(3-((S)-1-(2,3-Dichlorophenylsulfonyl)pyrrolidin-2-yl)propylsulfonyl)-3-(pyridin-4-yloxy)-8-azabicyclo[3.2.1]octane], the inhibition at 10 µM in assay [1] came to 100%; in assay [2], 89%.

As to `O=S(=O)(CCC[C@@H]1CCCN1S(=O)(=O)c1ccc2ccccc2c1)N1[C@@H]2CC[C@H]1C[C@H](Oc1ccncc1)C2` [Example 57, (1R,3R,5S)-8-(3-((S)-1-(Naphthalen-2-ylsulfonyl)pyrrolidin-2-yl)propylsulfonyl)-3-(pyridin-4-yloxy)-8-azabicyclo[3.2.1]octane], the inhibition at 10 µM in assay [1] worked out at 54%; in assay [2], 25%.

In the case of `COc1cc(C)c(S(=O)(=O)N2CCC(CCS(=O)(=O)N3CCN(c4ccncc4)CC3)C2)c(C)c1C` (stereo not drawn) [Example 22, 1-(2-(1-(4-Methoxy-2,3,6-trimethylphenylsulfonyl)pyrrolidin-3-yl)ethylsulfonyl)-4-(pyridin-4-yl)piperazine], the inhibition at 10 µM in assay [1] amounted to 95%; in assay [2], 103%.

Turning to `O=S(=O)(CCC[C@@H]1CCCN1S(=O)(=O)c1cccc2ccccc12)N1CCC2(CCN(c3ccncc3)CC2)CC1` [Example 67, 3-(3-((S)-1-(Naphthalen-1-ylsulfonyl)pyrrolidin-2-yl)propylsulfonyl)-9-(pyridin-4-yl)-3,9-diazaspiro[5.5]undecane hydrochloride], the inhibition at 10 µM in assay [1] was 97%; in assay [2], 98%.

In the case of `CN1CCC(N2CCN(S(=O)(=O)CCCCC3CCCN3S(=O)(=O)c3cccc4ccccc34)CC2)CC1` (stereo not drawn) [Example 5, 1-(1-Methylpiperidin-4-yl)-4-(4-(1-(naphthalen-1-ylsulfonyl)pyrrolidin-2-yl)butylsulfonyl)piperazine dihydrochloride], the inhibition at 10 µM in assay [1] stood at 56%; in assay [2], 49%.

Take `COc1cc(C)c(S(=O)(=O)N2CC(CCS(=O)(=O)N3CCC(CCN4CCCC4)CC3)CO2)c(C)c1C` (stereo not drawn) [Example 15]: the figures for the inhibition at 10 µM in assay [1] and in assay [2] were 18% and 97%, respectively.

On to `CN1CCC(N2CCN(S(=O)(=O)CCC[C@@H]3CCCN3S(=O)(=O)c3c(Cl)cc(Cl)cc3Cl)CC2)CC1` [Example 28, (S)-1-(1-Methylpiperidin-4-yl)-4-(3-(1-(2,4,6-trichlorophenylsulfonyl)pyrrolidin-2-yl)propylsulfonyl)piperazine], for which the inhibition at 10 µM stood at 91% in assay [1] and 104% in assay [2].

For the compound `Cc1cc(S(=O)(=O)N2CCCCC2CCS(=O)(=O)N2CCN(C3CCN(C)CC3)CC2)c(C)cc1Cl` (stereo not drawn) [Example 38, 1-(2-(1-(4-Chloro-2,5-dimethylphenylsulfonyl)piperidin-2-yl)ethylsulfonyl)-4-(1-methylpiperidin-4-yl)piperazine dihydrochloride], the results for the inhibition at 10 µM in assay [1] and in assay [2] were 47% and 101%, respectively.

Regarding `COc1cc(C)c(S(=O)(=O)N2c3ccccc3CC2CCCS(=O)(=O)N2CCC3(CCN(c4ccncc4)CC3)CC2)c(C)c1` (stereo not drawn) [Example 45, 1-(4-Methoxy-2,6-dimethylphenylsulfonyl)-2-(3-(9-(pyridin-4-yl)-3,9-diazaspiro[5.5]undecan-3-ylsulfonyl)propyl)indoline], the inhibition at 10 µM was 102% in assay [1] and 98% in assay [2].

As for `O=S(=O)(CCC[C@@H]1CCCN1S(=O)(=O)c1ccc(C(F)(F)F)cc1Cl)N1CCC(Oc2ccncc2)CC1` [Example 71, (S)-4-(1-(3-(1-(2-Chloro-4-(trifluoromethyl)phenylsulfonyl)pyrrolidin-2-yl)propylsulfonyl)piperidin-4-yloxy)pyridine], the inhibition at 10 µM in assay [1] is 39%; in assay [2], 30%.

As for `O=S(=O)(CCC[C@@H]1CCCN1S(=O)(=O)c1ccc(F)c2ccccc12)N1CCC2(CCN(c3ccncc3)CC2)CC1` [Example 78, 3-(3-((S)-1-(4-Fluoronaphthalen-1-ylsulfonyl)pyrrolidin-2-yl)propylsulfonyl)-9-(pyridin-4-yl)-3,9-diazaspiro[5.5]undecane], the figures for the inhibition at 10 µM in assay [1] and in assay [2] were 93% and 91%, respectively.

For the compound `COc1cc(C)c(S(=O)(=O)N2CCCC(CCCS(=O)(=O)N3CCC(CCN4CCCC4)CC3)C2)c(C)c1C` (stereo not drawn) [Example 10, 1-(4-Methoxy-2,3,6-trimethylphenylsulfonyl)-3-(3-(4-(2-(pyrrolidin-1-yl)ethyl)piperidin-1-ylsulfonyl)propyl)piperidine hydrochloride], the results for the inhibition at 10 µM in assay [1] and in assay [2] were 10% and 63%, respectively.

Take `COc1cc(C)c(S(=O)(=O)N2CCC[C@H]2CCCS(=O)(=O)N2CCC3(CCC(Oc4ccncc4)CC3)CC2)c(C)c1` [Example 66, 3-(3-((S)-1-(4-Methoxy-2,6-dimethylphenylsulfonyl)pyrrolidin-2-yl)propylsulfonyl)-9-(pyridin-4-yloxy)-3-azaspiro[5.5]undecane hydrochloride]: the inhibition at 10 µM in assay [1] amounted to 102%; in assay [2] it was 100%.

On to `O=S(=O)(CCC[C@H]1CCCN1S(=O)(=O)c1ccc2ccccc2c1)N1CCN(c2ccncc2)CC1` [Example 2, (R)-1-(3-(1-(Naphthalen-2-ylsulfonyl)pyrrolidin-2-yl)propylsulfonyl)-4-(pyridin-4-yl)piperazine hydrochloride], for which the inhibition at 10 µM came to 84% in assay [1] and 102% in assay [2].

For `O=S(=O)(CCC1CCN(S(=O)(=O)c2ccc(Cl)c(Cl)c2)C1)N1CCN(c2ccncc2)CC1` (stereo not drawn) [Example 24, 1-(2-(1-(3,4-Dichlorophenylsulfonyl)pyrrolidin-3-yl)ethylsulfonyl)-4-(pyridin-4-yl)piperazine hydrochloride], the inhibition at 10 µM was 33% in assay [1] and 62% in assay [2].

Source of the values: patent publication US8119805B2, “Substituted disulfonamide compounds” (Gruenenthal GmbH, priority 2008, dated 2012).
